This is an account of results in patent US20100035756A1, “TRIAZOLOPHYRIDINE DERIVATIVES AS HERBICIDES” (SYNGENTA LIMITED, priority 2006, published 2010).

The subject of assay [1] is Monocotyledonous and dicotyledonous test plants. Description: Herbicidal action prior to emergence of the plants (pre-emergence action), Example B1. The format is in vivo. The settings on record: preemergence application, 250 g/ha, evaluated after 4 weeks, 100%=total damage, 0%=no damage. As to the method: (§1) Monocotyledonous and dicotyledonous test plants are sown in seed trays in standard soil. Immediately after sowing, the test compounds are applied by spraying in the form of an aqueous suspension (prepared from a wettable powder (Example F3, b) according to WO 97/34485) or in the form of an emulsion (prepared from an emulsifiable concentrate (Example F1, c) according to WO 97/34485) in a concentration of 250 g/ha. The test plants are then grown in a greenhouse under optimum conditions. After a 4-week test period, the test is evaluated (100%=total damage to plant; 0%=no damage to plant; NC not evaluated).

Assay [2] shares this test system. The assay can be described thus: Herbicidal action after emergence of the plants (post-emergence herbicidal action), Example B2. The settings on record: postemergent application, 125 g/ha, 2- to 3-leaf stage, evaluated after 2-3 weeks, 100%=total damage. The format is in vivo. As to the method: as §1, with “When the test plants are at the 2- to 3-leaf stage,” for “Immediately after sowing,”, “125” for “250”, “grown on” for “grown”, “2- to 3-week” for “4-week”, “plant).” for “plant; NC not evaluated).”

The structures appear in SMILES notation. Where “and” joins values, the source holds several entries; their conditions need not be identical. Equal values may be shown once.

For `Cc1nnc2c(C(=O)C3=C(O)C4CCC(C4)C3=O)ccc(C(F)F)n12` (centres unmarked) [Compound 1.54], in assay [1], the “herbicidal damage, ABUTH” value worked out at 20%; the “herbicidal damage, AMARE” value amounted to 10%; the “herbicidal damage, BRAPL” value was found to be 40%; the “herbicidal damage, DIGSA” value worked out at 0%. Besides, in assay [1], the “herbicidal damage, ECHCG” value was 0%; the “herbicidal damage, SETFA” value worked out at 0%; the “herbicidal damage, STEME” value was 0%; the “herbicidal damage, VERPE” value turned out to be 20%. Moreover, in assay [2], the “herbicidal damage, ABUTH” value came out at 70%; the “herbicidal damage, AMARE” value was determined as 80%; the “herbicidal damage, CHEAL” value is reported as 70%; the “herbicidal damage, DIGSA” value was 60%. In addition, in assay [2], the “herbicidal damage, SETFA” value is listed as 50%; the “herbicidal damage, SINAR” value is on record as 60%; the “herbicidal damage, VERPE” value came out at 60%; the “herbicidal damage, XANST” value was found to be 70%.

Consider `CCOc1nc2c(C(=O)C3=C(O)C4CCC(C4)C3=O)ccc(C(F)(F)F)n2n1` (centres unmarked) [2.209], for which, in assay [1], the “herbicidal damage, ABUTH” value turned out to be 100%; the “herbicidal damage, AMARE” value came to 100%; the “herbicidal damage, BRAPL” value worked out at 90%; the “herbicidal damage, DIGSA” value was 80%. Further, in assay [1], the “herbicidal damage, ECHCG” value turned out to be 70%; the “herbicidal damage, SETFA” value was found to be 80%; the “herbicidal damage, STEME” value is 70%; the “herbicidal damage, VERPE” value was 30%. For the same compound, in assay [2], the “herbicidal damage, ABUTH” value is reported as 80%; the “herbicidal damage, AMARE” value is reported as 90%; the “herbicidal damage, CHEAL” value is 80%; the “herbicidal damage, DIGSA” value is on record as 80%. In addition, in assay [2], the “herbicidal damage, SETFA” value amounted to 80%; the “herbicidal damage, SINAR” value turned out to be 80%; the “herbicidal damage, VERPE” value was found to be 80%; the “herbicidal damage, XANST” value was 80%.

As to `CC(C)c1nnc2c(C(=O)C3=C(O)C(C)(C)C(=O)C(C)(C)C3=O)ccc(C(F)(F)F)n12` [Compound 5.4], in assay [1], the “herbicidal damage, ABUTH” value is given as 100%; the “herbicidal damage, AMARE” value was found to be 100%; the “herbicidal damage, BRAPL” value came to 100%; the “herbicidal damage, DIGSA” value is 60%. In assay [1], the “herbicidal damage, ECHCG” value amounted to 40%; the “herbicidal damage, SETFA” value is 30%; the “herbicidal damage, STEME” value is listed as 100%; the “herbicidal damage, VERPE” value is recorded as 100%. In addition, in assay [2], the “herbicidal damage, ABUTH” value was determined as 80%; the “herbicidal damage, AMARE” value is 90% and 70%; the “herbicidal damage, CHEAL” value is recorded as 80%; the “herbicidal damage, SETFA” value worked out at 50%. In addition, in assay [2], the “herbicidal damage, SINAR” value is 70% and 80%; the “herbicidal damage, VERPE” value is 80% and 90%; the “herbicidal damage, XANST” value is 70% and 90%.

As to `CC(C)c1nnc2c(C(=O)C3=C(O)CCCC3=O)ccc(C(F)(F)F)n12` [Compound 3.6], in assay [1], the “herbicidal damage, ABUTH” value came to 90%; the “herbicidal damage, AMARE” value was determined as 70%; the “herbicidal damage, BRAPL” value is on record as 60%; the “herbicidal damage, DIGSA” value is listed as 90%. Further, in assay [1], the “herbicidal damage, ECHCG” value was 90%; the “herbicidal damage, SETFA” value is 50%; the “herbicidal damage, STEME” value is on record as 20%; the “herbicidal damage, VERPE” value was 20%. Also, in assay [2], the “herbicidal damage, ABUTH” value is listed as 80%; the “herbicidal damage, AMARE” value stood at 70%; the “herbicidal damage, CHEAL” value was found to be 90%; the “herbicidal damage, DIGSA” value was 70%. In assay [2], the “herbicidal damage, SETFA” value came to 70%; the “herbicidal damage, SINAR” value stood at 90%; the “herbicidal damage, VERPE” value came to 100%; the “herbicidal damage, XANST” value worked out at 90%.

Turning to `O=C1CCCC(O)=C1C(=O)c1ccc(C(F)(F)F)n2c(C3CC3)nnc12` [Compound 3.7], in assay [1], the “herbicidal damage, ABUTH” value amounted to 30%; the “herbicidal damage, AMARE” value is given as 30%; the “herbicidal damage, BRAPL” value came out at 30%; the “herbicidal damage, DIGSA” value is 30%. Moreover, in assay [1], the “herbicidal damage, ECHCG” value is listed as 10%; the “herbicidal damage, SETFA” value came out at 10%; the “herbicidal damage, STEME” value came out at 20%; the “herbicidal damage, VERPE” value is 10%. In assay [2], the “herbicidal damage, ABUTH” value is recorded as 80%; the “herbicidal damage, AMARE” value came to 90%; the “herbicidal damage, CHEAL” value was 70%; the “herbicidal damage, DIGSA” value was 80%. Moreover, in assay [2], the “herbicidal damage, SETFA” value is on record as 80%; the “herbicidal damage, SINAR” value was 90%; the “herbicidal damage, VERPE” value was 80%; the “herbicidal damage, XANST” value is reported as 80%.

On to `O=C(C1=C(O)C2CCC(C2)C1=O)c1ccc(C(F)(F)F)n2cnnc12` (centres unmarked) [Compound 1.1], for which, in assay [1], the “herbicidal damage, ABUTH” value came out at 100%; the “herbicidal damage, BRAPL” value was 30%; the “herbicidal damage, DIGSA” value is listed as 70%; the “herbicidal damage, ECHCG” value is reported as 0%. In assay [1], the “herbicidal damage, SETFA” value is reported as 30%; the “herbicidal damage, STEME” value came to 100%; the “herbicidal damage, VERPE” value is 60%. Further, in assay [2], the “herbicidal damage, ABUTH” value was determined as 80%; the “herbicidal damage, AMARE” value amounted to 80%; the “herbicidal damage, CHEAL” value turned out to be 80%; the “herbicidal damage, DIGSA” value worked out at 60%. For the same compound, in assay [2], the “herbicidal damage, SETFA” value amounted to 80%; the “herbicidal damage, SINAR” value was determined as 90%; the “herbicidal damage, VERPE” value worked out at 50%; the “herbicidal damage, XANST” value was determined as 80%.

As for `CC1(C)C(=O)C(C(=O)c2ccc(C(F)(F)F)n3c(-c4ccc(Cl)cc4)nnc23)=C(O)C(C)(C)C1=O` [Compound 5.10], in assay [1], the “herbicidal damage, ABUTH” value is 100%; the “herbicidal damage, AMARE” value is recorded as 100%; the “herbicidal damage, BRAPL” value was 20%; the “herbicidal damage, DIGSA” value is 40%. In assay [1], the “herbicidal damage, ECHCG” value came to 20%; the “herbicidal damage, SETFA” value is given as 0%; the “herbicidal damage, STEME” value is 30%. Besides, in assay [2], the “herbicidal damage, ABUTH” value stood at 80%; the “herbicidal damage, AMARE” value is 80%; the “herbicidal damage, CHEAL” value is listed as 70%; the “herbicidal damage, DIGSA” value turned out to be 20%. Besides, in assay [2], the “herbicidal damage, SETFA” value is 30%; the “herbicidal damage, SINAR” value was determined as 80%; the “herbicidal damage, VERPE” value worked out at 100%; the “herbicidal damage, XANST” value is reported as 80%.

On to `Cc1nnc2c(C(=O)c3cnn(C)c3O)ccc(C(F)(F)F)n12` [Compound 6.3], for which, in assay [1], the “herbicidal damage, ABUTH” value turned out to be 10%; the “herbicidal damage, AMARE” value was 70%; the “herbicidal damage, DIGSA” value is 30%; the “herbicidal damage, ECHCG” value stood at 30%. In assay [1], the “herbicidal damage, SETFA” value worked out at 0%; the “herbicidal damage, STEME” value worked out at 40%; the “herbicidal damage, VERPE” value is 80%. In assay [2], the “herbicidal damage, ABUTH” value is 60%; the “herbicidal damage, AMARE” value was 90%; the “herbicidal damage, CHEAL” value was found to be 70%; the “herbicidal damage, DIGSA” value came to 80%. Further, in assay [2], the “herbicidal damage, SETFA” value is 60%; the “herbicidal damage, SINAR” value is 80%; the “herbicidal damage, VERPE” value is on record as 80%; the “herbicidal damage, XANST” value is given as 80%.

For the compound `CC1(C)C(=O)C(C(=O)c2ccc(C(F)(F)F)n3c(Br)nnc23)=C(O)C(C)(C)C1=O` [Compound 5.2], in assay [2], the “herbicidal damage, ABUTH” value was 90%; the “herbicidal damage, AMARE” value worked out at 80%; the “herbicidal damage, CHEAL” value was found to be 100%; the “herbicidal damage, DIGSA” value stood at 70%. In assay [2], the “herbicidal damage, SETFA” value stood at 80%; the “herbicidal damage, SINAR” value is 90%; the “herbicidal damage, VERPE” value is listed as 90%; the “herbicidal damage, XANST” value was found to be 70%.

As to `CC1(C)C(=O)C(C(=O)c2ccc(C(F)(F)F)n3cnnc23)=C(O)C(C)(C)C1=O` [Compound 5.1], in assay [1], the “herbicidal damage, ABUTH” value was 100%; the “herbicidal damage, AMARE” value is reported as 100%; the “herbicidal damage, BRAPL” value was found to be 100%; the “herbicidal damage, DIGSA” value turned out to be 100%. In addition, in assay [1], the “herbicidal damage, ECHCG” value stood at 90%; the “herbicidal damage, SETFA” value was 40%; the “herbicidal damage, STEME” value stood at 100%; the “herbicidal damage, VERPE” value came to 80%.
